The values below are quoted from earlier work in patent US8888736B2, “High shear application in medical therapy” (H R D Corporation, priority 2010, dated 2014).

The conditions of data set [1]: believed to average around.

In brackets after ≈: the same amount, converted by molar mass. Like-named read-outs stand apart in the source and are kept apart here.

Consider `ClC=C(Cl)Cl` [trichloroethylene], for which, where the note is “water at 20° C.”, the solubility is 0.1 g/100 ml.
`C=COC=C` [divinyl ether]: the solubility (water at 37° C.) was 0.0749 mol/L (≈ 5250 µg/mL).
In the case of `CCCl` [chloroethane], the solubility (water at 20° C.) is 0.0078 mol/L (≈ 503 µg/mL).
For `C1CC1` [cyclopropane], the solubility (in water at 21° C.) was 537 ppm.
In the case of `C=C` [ethylene], the solubility (water at 20° C.) was 0.015 g/100 ml.
Consider `CCCl` [ethylchloride], for which the solubility (in water at 21° C.) is recorded as 0.678 % by weight.
As for `S` [hydrogen sulfide], the “toxic level in the body” value in data set [1] is recorded as 300-350 ppm.
